Measured values reported in US5362629A, “Detection of immunosuppressants” (President and Fellows of Harvard College, priority 1991, dated 1994).
Entries after “also recorded” stand apart in the source; their conditions may differ.

Assays:
[1] = test system: proteins of Mr 61,000, 57,000, 17,000, and 15,000 from calf thymus (calcineurin A, calcineurin B, calmodulin); assay: Glutathione Sepharose adsorption of target proteins from tissue extracts by immunophilin-drug affinity matrices; type: binding, bovine; settings: calf thymus extract; Ca2+ and Mg2+ in incubation buffer
Description: Several factors were taken into account in the design of the first glutathione-Sepharose adsorption experiment. […] In addition, in some experiments, a homobifunctional cross-linking reagent, dimethyl 3,3'-dithiobispropionimidate (DTBP) (Wang et al. 1974, J. Biol. Chem. 249:8005) was added to the incubation mixture to retain target proteins whose affinity for immunophilin or immunophilin-drug complex was not sufficient to withstand the washes following adsorption of the complex to the solid phase.
Adsorption of calcineurin-calmodulin with GFK-FK506 using glutathione Sepharose was performed as follows. Crude tissue extracts, fresh bovine calf brain, thymus, or spleen (Research 87, Revere, MA), were homogenized (1:3 W/V) in 20 mM Tris HCl (pH 6.8), 0.25 mM NaCl, 2 mM β-mercaptoethanal, 0.02% NaN3, 1 mM PMSF, and 5% glycerol. The homogenate was centrifuged at 8,000×g for 4 h. The supernatant was separated and the pellet was resuspended in an equal volume of the same buffer. Centrifugation at 8,000 ×g for 4 h gave a second supernatant. The two supernatants were mixed (1:1 v/v) and centrifuged at 30,000×g for 45 min. The supernatant was then filtered through a 0.45 μm filter and kept at 4° C. before use.
The crude tissue extracts were pre-incubated with glutathione Sepharose (about 1:100 to 1:200 dilution of the sepharose) at 4° C. for 1-3 h to remove the endogenous glutathione binding proteins, including glutathione S-transferases. […] After incubation at 4° C. on a nutator for 1.5 h, 25 μL of 50% (V/V) glutathione Sepharose in buffer A was added and incubation was continued for an additional 0.5 to 2 h. The Sepharose beads were precipitated by centrifugation on a microcentrifuge at 5,000×g for 2 min. The glutathione Sepharose beads were washed three times with 0.5 mL buffer A containing 0.2% Triton X-100. The washed glutathione Sepharose was then resuspended in 25 μL of 2× SDS sample buffer, heated in boiling water for 3 min, and centrifuged for 2 min. The supernatant was subjected to SDS-PAGE followed by silver staining. […]

[2] = biological target: T1, calcineurin (Bos taurus, UniProt P48452+P63099); assay: Calcineurin phosphatase assay with 32P-phosphopeptide (RII subunit) substrate; type: biochemical, bovine; settings: in the presence or absence of calmodulin; Ca2+
T1 construct: Bovine brain calcineurin and calmodulin were purchased from Sigma Chemical; purchased Sigma Chemical (St. Louis, Mo.); also a gift from Dr. Claude B. Klee; host or cells: bovine brain
Description: Calcineurin is known to be a Ca^2+, calmodulin-dependent protein phosphatase (Stewart et al., 1982, FEBS. Lett. 137:80). Using a phosphorylated peptide fragment from the regulatory subunit of cAMP-dependent kinase as a substrate, the phosphatase activity of the calcineurin was assayed in the presence of the immunophilins, the individual drugs, and their respective complexes with or without calmodulin.
Calcineurin phosphatase assays were carried out essentially as described previously (Manalan et al. 1983, Proc. Natl. Acad. Sci. USA 80:4291) with minor modifications. The substrate used was a synthetic peptide corresponding to the phosphorylation site of the RII subunit of cyclic AMP-dependent protein kinase […] (Sequence I.D. No. 1), which was phosphorylated with ^32 p-labeled ATP at the serine residue. The assay buffer consists of 40 mM TrisHCl (pH 7.5), 0.1 M NaCl, 6 mM MgCl2, 0.1 mM CaCl2, 0.1 mg/mL bovine serum albumin, and 0.5 mM dithiothreitol. The assay mixture (60 μl) contained 40 nM calcineurin, and 80 nM calmodulin (when present), and 2 μM phosphopeptide in addition to the assay buffer. […] Therefore, the drug solutions were prepared in DMSO as follows. DMSO stock solutions of the drugs were prepared (3000×final concentration) and then diluted 100×with the assay buffer. 2 μL was added to the incubation mixture giving a final concentration of DMSO of less than 0.04% in the final assay mixture. The incubations were carried out at 30° C. for 10 min before the reaction was stopped by addition of the stop solution (5% trichloroacetic acid, 0.1 M potassium phosphate) and loaded onto 0.5 ml Dowex AG 50W-X8 (200-800 mesh, Bio-Rad) columns. After the [^32 P]-inorganic phosphate was eluted from the column, it was mixed with 12 ml of ScintiVerse II (Fisher Scientific) and counted on a Beckman LS1801 Liquid Scintillation Systems. Bovine brain calcineurin and calmodulin were purchased from Sigma Chemical (St. Louis, Mo.). ^32 P-labeled phosphorylated peptide substrate, bovine brain calcineurin, and rabbit anti-calcineurin IgG were generous gifts from Dr. Claude B. Klee (National Cancer Institute, Department of Biochemistry). Goat-anti-rabbit IgG conjugated with alkaline phosphatase and the alkaline phosphatase substrates (BCIP and NBT) were obtained from Pierce (Rockford, ILL.). Glutathione Sepharose 4B was from Pharmacia LKB (Uppsala, Sweden). 506BD was prepared by Thomas J. Wandless and Patricia K. Somers in the Harvard laboratory.

[3] = test system: T-cell receptor-mediated signaling pathway; settings: cited from earlier work
[4] = biological target: T2, calcineurin-Ca2+/calmodulin (Bos taurus, UniProt P48452+P63099); assay: Calcineurin phosphatase assay with para-nitrophenyl phosphate; type: biochemical, bovine; settings: Ca2+ and calmodulin present
T2 construct: Bovine brain calcineurin and calmodulin were purchased from Sigma Chemical; purchased Sigma Chemical (St. Louis, Mo.); also a gift from Dr. Claude B. Klee; host or cells: bovine brain
Source text: The small para-nitrophenyl phosphate reagent presumably interacts with calcineurin nearly exclusively via active site residues, whereas the phosphopeptide, which is comprised of a sequence derived from the phosphorylation site on the RII subunit of cyclic AMP-dependent protein kinase (a calcineurin substrate) (Blumenthal et al., 1986, J. Biol. Chem 261:8140), is presumed to make extensive contact with the enzyme.

[5] = test system: set of four target proteins (calcineurin-calmodulin) adsorbed on GFK-FK506; assay: Competitive binding / elution of target proteins from glutathione-Sepharose-immobilized GFK-FK506; parameters: species or system bovine
Description: A competitive binding experiment was carried out with recombinant FKBP12 and cyclophilin A (Standaert et al., 1990, supra, Lui et al., 1990, Proc. Natl. Acad. Sci. 87:2304) and their respective drug complexes. After the set of four target proteins were adsorbed onto the glutathione Sepharose affinity matrix, elution was attempted with immunophilins, the drugs, or the immunophilin-drug complexes. The set of four proteins were eluted from glutathione-sepharoseimmobilized GFK-FK506 with both recombinant complexes. In contrast, these proteins were not eluted by free immunophilins or unbound drugs.
To further test the importance of divalent metal ions for interaction between immunophilin-drug complexes and target proteins, the adsorption experiment was performed in the presence of the Ca^2+ chelator EGTA.

T1 sequence (P63099 2-170 limits assumed, other chains not shown): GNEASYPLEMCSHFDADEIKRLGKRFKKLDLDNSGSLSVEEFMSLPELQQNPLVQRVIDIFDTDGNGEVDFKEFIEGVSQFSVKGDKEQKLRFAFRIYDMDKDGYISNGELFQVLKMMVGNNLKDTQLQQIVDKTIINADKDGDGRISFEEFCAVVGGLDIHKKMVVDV

Compound | retention/adsorption of the Mr 61,000, 57,000, 17,000 and 15,000 proteins by the affinity matrix [1] | effect on phosphatase activity of calcineurin towards the phosphopeptide substrate [2] | concentration needed to interfere with T-cell receptor-mediated signaling, relative to CsA ([3]; lower concentrations than CsA) [fold] | effect on phosphatase activity of calcineurin towards para-nitrophenyl phosphate [4] | elution of the four target proteins from the immobilized immunophilin-drug matrix [5] | inhibition of TCR-mediated signaling ([3]; previous observations)
C=CC[C@@H]1/C=C(\C)C[C@H](C)C[C@H](OC)[C@H]2O[C@@](O)(C(=O)C(=O)N3CCCC[C@H]3C(=O)O[C@H](/C(C)=C/[C@@H]3CC[C@@H](O)[C@H](OC)C3)[C@H](C)[C@@H](O)CC1=O)[C@H](C)C[C@@H]2OC [FK506] | do not retain | no effect | 100 | no effect |  | 
O=C(O)CN(CCOCCOCCN(CC(=O)O)CC(=O)O)CC(=O)O [EGTA] |  |  |  |  | able to effectively elute; also recorded: capable of eluting | 
FKBP12: recombinant human immunophilin binding FK506 and rapamycin | do not retain | no effect |  | no effect |  | 
cyclophilin A: recombinant human immunophilin which complexes with cyclosporine A |  | no effect |  | no effect |  | 
CO[C@H]1C[C@@H]2CC[C@@H](C)[C@@](O)(O2)C(=O)C(=O)N2CCCC[C@H]2C(=O)O[C@H]([C@H](C)C[C@@H]2CC[C@@H](O)[C@H](OC)C2)CC(=O)[C@H](C)/C=C(\C)[C@@H](O)[C@@H](OC)C(=O)[C@H](C)C[C@H](C)/C=C/C=C/C=C/1C [rapamycin] | do not retain | no effect |  | no effect |  | inhibits different, calcium-independent signaling pathways
